Measurements published in patent EP4023291A1, “FAT METABOLISM PROMOTER” (Asahi Group Holdings, Ltd., priority 2019, dated 2021).

Legend:
[1] = test system: 3T3-L1 cells; experiment: Test 4: lipolysis test, glycerol released into culture supernatant of differentiated adipocytes; format: cell-based, Mouse; conditions: for amount of released glycerol, comparison with control: against Comparative Example 4 (0.1% ethanol), one-way ANOVA, Dunnett's test; for control ratio: amount of glycerol relative to medium of Comparative Example 4, Average: culture 2 days, 0.1% ethanol, 0.1 µM noradrenaline, ethyl caproate 0/0.1/1/10 ppm in Comparative Example 5/Examples 6/7/8
Protocol: In the present test, the lipolysis-promoting effect of the promoter of the present embodiment was tested by quantifying glycerol released into culture supernatant through decomposition of fat accumulated in adipocytes. Mouse embryonic 3T3-L1 cells, which are progenitor cells of adipocytes and were used in the present test, were induced to differentiate to form adipocytes. The present test was carried out in accordance with a method described in "Effects of Quercetin Glucosides on Dietinduced Obesity in Mice - The Lipolytic Activity of Quercetin -" (Tateishi et al., Japanese Pharmacology & Therapeutics 2009; 37(2): 123-131). The specific testing method of the present test and the results of the test are shown in the following.
In the present test, first, 3T3-L1 cells were suspended in Dulbecco's Modified Eagle medium (manufactured by FUJIFILM Wako Pure Chemical Corporation) (hereinafter, also referred to as "DMEM medium") to which penicillin-streptomycin (manufactured by Thermo Fisher Scientific, Inc.) and fetal bovine serum (manufactured by Sigma-Aldrich Co. LLC) had been added to reach concentrations of 100 Unit/mL, 100 µg/mL, and 10%, respectively, and seeded in a 12-well plate.
The 3T3-L1 cells were cultured under conditions of 5% CO2 and 37°C until the cells became confluent (a state in which cells are totally covering the surface of a culture vessel). Two days after becoming confluent, the medium was exchanged with a medium obtained by adding dexamethasone (manufactured by NACALAI TESQUE, INC.), 3-isobutyl-1-methylxanthine (manufactured by NACALAI TESQUE, INC.), and insulin (manufactured by NACALAI TESQUE, INC.) to DMEM medium to reach concentrations of 0.25 µM, 0.5 mM, and 10 µg/mL, respectively. Thereafter, the 3T3-L1 cells were cultured at 5% CO2 and 37°C for 2 days to induce the cells to differentiate into adipocytes.
After the induction of differentiation, medium exchange with a medium obtained by adding insulin to DMEM medium to reach a concentration of 5 µg/mL was performed every 2 or 3 days, and differentiation was maintained by culturing at 5% CO2 and 37°C for 12 days in total. Thereafter, a medium is prepared as a test medium by adding penicillin-streptomycin (manufactured by Thermo Fisher Scientific, Inc.) and fetal bovine serum (manufactured by Sigma-Aldrich Co. LLC) to DMEM medium free of phenol red (1.0 g/L glucose) (manufactured by NACALAI TESQUE, INC.) to reach concentrations of 100 Unit/mL, 100 µg/mL, and 10%, respectively, and components shown in Table 4 were added to the test medium to reach concentrations shown in Table 4. The medium for the 3T3-L1 cells after induction of differentiation was exchanged with a medium to which components of any of Comparative Examples 4, 5 or Examples 6 to 8 had been added, and the 3T3-L1 cells were cultured at 5% CO2 and 37°C for 2 days.
Ethyl caproate manufactured by Tokyo Chemical Industry Co., Ltd. was used for the ethyl caproate, ethanol manufactured by FUJIFILM Wako Pure Chemical Corporation was used for the ethanol, and noradrenaline manufactured by NACALAI TESQUE, INC. was used for the noradrenaline.
After culturing for 2 days, the culture supernatant was collected, and glycerol released into the culture supernatant was quantified with a Glycerol Assay kit (Cell-Based) (manufactured by Abcam). The ratio of the amount of glycerol in each medium to which the components of any of Comparative Example 5 and Examples 6 to 8 had been added relative to the amount of glycerol in the medium to which the component of Comparative Example 4 had been added (hereinafter, referred to as "control ratio") was determined to obtain the average ± standard error.
In the present test, statistical test was carried out by multiple comparison test with one-way analysis of variance (one-way ANOVA) followed by Dunnett's test. Significance levels of p < 0.05 were each determined to be a significant difference. These analyses were all performed with SPSS version 23 (manufactured by SPSS).

[2] = test system: HEK293T cells without transfer of the TRPA1 gene; experiment: Test 5: TRPA1 activity test, reference in non-transformed cells; format: cell-based, human; conditions: ethyl caproate 255 ppm test solution, 100 ppm in well
Protocol: In the present test, first, human embryonic HEK293T cells were first suspended in DMEM medium to which penicillin-streptomycin (manufactured by Thermo Fisher Scientific, Inc.) and fetal bovine serum (manufactured by Sigma-Aldrich Co. LLC) were added to reach concentrations of 100 Unit/mL, 100 µg/mL, and 10%, respectively, seeded in a 96-well plate at a volume of 100 µL/well, and cultured under conditions of 5% CO2 and 37°C until a cell density reached 70 to 90%.
(§1) Ethyl caproate was added to HEPES buffer (10 mM HEPES, 130 mM NaCl, 5 mM KCl, 10 mM glucose, 2 mM CaCl2·2H2O, 1.2 mM MgCl2·6H2O, pH = 7.40), and thus a test solution of Example 9 containing ethyl caproate in a concentration of 255 ppm was obtained. […] Measurement of fluorescence intensity for the cells with forced expression of TRPA1 was initiated, and, 20 seconds thereafter, 50-µL portions of each of the test solutions prepared were added to three wells. After the lapse of a predetermined period of time, the measurement of fluorescence intensity was completed, and ratios of fluorescence intensity at each time after addition of a test solution as the average of fluorescence intensity before addition of a test solution was assumed as 1 (hereinafter, also referred to as "RFU (relative fluorescence units)") were determined from measurements of fluorescence intensity. […]

[3] = biological target: T1, TRPA1 (Homo sapiens, UniProt O75762); experiment: Test 5: TRPA1 activity test, calcium imaging in cells with forced expression of TRPA1; format: cell-based
T1 construct: expressed in transfected cells; host or cells: HEK293T cells, transient transfection with Lipofectamine 2000
Protocol: In the present test, the contribution of the lipid metabolism promoter of the present embodiment to TRPA1 activity was examined by checking the activation of the temperature-sensitive ion channel TRPA1 with a calcium imaging method. The specific testing method of the present test and the results of the test are shown in the following. […]
as §1, with “intensity. Further, change rates in RFU before and after addition of a test solution (hereinafter, also referred to as "ΔRFU") were determined at each time after addition of a test solution.” for “intensity.”

T1 sequence (O75762 whole entry): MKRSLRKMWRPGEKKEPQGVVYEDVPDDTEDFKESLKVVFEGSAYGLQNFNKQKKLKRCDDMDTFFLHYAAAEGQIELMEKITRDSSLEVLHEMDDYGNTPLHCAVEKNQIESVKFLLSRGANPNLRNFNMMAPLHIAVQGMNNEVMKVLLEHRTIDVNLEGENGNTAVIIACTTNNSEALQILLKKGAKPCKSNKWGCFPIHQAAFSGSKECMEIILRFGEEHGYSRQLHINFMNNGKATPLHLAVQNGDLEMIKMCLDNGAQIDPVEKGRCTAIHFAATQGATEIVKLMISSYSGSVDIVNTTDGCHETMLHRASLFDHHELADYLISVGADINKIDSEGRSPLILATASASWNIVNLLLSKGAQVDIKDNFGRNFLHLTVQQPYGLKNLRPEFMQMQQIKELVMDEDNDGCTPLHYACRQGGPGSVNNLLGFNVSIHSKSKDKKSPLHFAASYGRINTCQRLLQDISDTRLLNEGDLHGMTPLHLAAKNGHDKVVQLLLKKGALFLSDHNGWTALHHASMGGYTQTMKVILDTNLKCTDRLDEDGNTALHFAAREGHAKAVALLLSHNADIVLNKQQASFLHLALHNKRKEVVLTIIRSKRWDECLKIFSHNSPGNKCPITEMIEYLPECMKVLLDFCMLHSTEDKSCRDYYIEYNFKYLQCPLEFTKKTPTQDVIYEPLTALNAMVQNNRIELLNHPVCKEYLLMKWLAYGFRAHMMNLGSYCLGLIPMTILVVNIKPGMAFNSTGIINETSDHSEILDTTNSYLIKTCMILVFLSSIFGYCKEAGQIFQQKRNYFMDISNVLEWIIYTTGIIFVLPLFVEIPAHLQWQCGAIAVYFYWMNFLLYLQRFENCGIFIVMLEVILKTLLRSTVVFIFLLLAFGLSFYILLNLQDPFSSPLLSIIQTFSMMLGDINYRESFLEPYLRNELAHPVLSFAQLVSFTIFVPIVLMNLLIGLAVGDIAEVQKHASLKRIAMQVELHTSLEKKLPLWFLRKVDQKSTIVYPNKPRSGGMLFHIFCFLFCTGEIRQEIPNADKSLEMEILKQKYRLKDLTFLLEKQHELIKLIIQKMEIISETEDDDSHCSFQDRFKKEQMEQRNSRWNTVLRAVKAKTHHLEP

Row | SMILES | amount of released glycerol, comparison with control [1] | control ratio: amount of glycerol relative to medium of Comparative Example 4, Average [1] | maximum value of ΔRFU after addition of test solution, Average [2] | cellular response after co-addition of the TRPA1 inhibitor HC03001 ([3]; cells with forced expression of TRPA1, Figure 11) | cellular response of cells with forced expression of TRPA1 ([3]; ethyl caproate 100 ppm in well, Figures 9 and 10)
1 | CCCCCC(=O)OCC [Example 8, Ethyl caproate] | significant increase in the amount of released glycerol | 1.118 | – | – | –
2 | CCCCCC(=O)OCC [Example 6, Ethyl caproate] | – | 1.063 | – | – | –
3 | CCCCCC(=O)OCC [Example 7, Ethyl caproate] | increasing tendency in the amount of released glycerol | 1.089 | – | – | –
4 | CCCCCC(=O)OCC [Example 9, Ethyl caproate] | – | – | 0.046 | disappeared | evoked cellular response
5 | NC[C@H](O)c1ccc(O)c(O)c1 [Comparative Example 5, Noradrenaline, reference compound] | almost no difference in the amount of released glycerol | 1.002 | – | – | –
